{"source": "patent US20190365675A1", "about": "“COMPOSITIONS FOR THE PREVENTION AND/OR TREATMENT OF ALCOHOL USE DISORDERS” (SERVICIO ANDALUZ DE SALUD, priority 2016, published 2019)", "key": {"[1]": {"assay": "Blood ethanol levels (BEL) during 4-day alcohol intoxication protocol", "assay_type": "in vivo, Wistar rats", "settings": "before and after force-feeding; two-way repeated measure ANOVA n.s.", "method": "The animals were treated with intragastric (i.g.) ethanol 3 times a day using an i.g. cannula (16G needle, Fisher Scientific, Waltham, Mass., USA), following a protocol based on a slightly modified standard 4-day alcohol intoxication pattern (Bernier et al., 2002a, b) (FIG. 1A). The ethanol doses were administered every 8 h for a total time of 4 days. The rats treated with ethanol received an initial loading dose of 5 g/kg of ethanol in a 30% solution (w/v) and then a maximum maintenance dose of 3 g/kg, which were determined based on blood ethanol levels (BEL). This repeated standard alcohol intoxication paradigm kept BEL intoxication relatively constant in a range of sedation/ataxia (190 to 430 mg/dl, Table 3), according to the 6-point alcohol intoxication behavior scale (Majchrowicz, 1975). The mean dose of ethanol/rat/day (days 1-4) was 7.06 g/kg, similar to other studies (Obernier et al., 2002a, b). To confirm intoxication, BEL was determined in blood samples taken from the tail 120 minutes before and after the second i.g. administration of ethanol of the day, which was done at 3 pm by means of the use of electrochemical detection of an enzymatic reaction with an AM1 alcohol analyzer (Analox Instruments, London, United Kingdom). […]"}, "IκBα": {"test_system": "IκBα", "assay": "IκBα mRNA and protein in frontal cortex cytosol extracts after ethanol intoxication", "assay_type": "in vivo, Wistar rats", "settings": "OEA pre-treatment", "method": "The animals were treated with intragastric (i.g.) ethanol 3 times a day using an i.g. cannula (16G needle, Fisher Scientific, Waltham, Mass., USA), following a protocol based on a slightly modified standard 4-day alcohol intoxication pattern (Bernier et al., 2002a, b) (FIG. 1A). The ethanol doses were administered every 8 h for a total time of 4 days. The rats treated with ethanol received an initial loading dose of 5 g/kg of ethanol in a 30% solution (w/v) and then a maximum maintenance dose of 3 g/kg, which were determined based on blood ethanol levels (BEL). This repeated standard alcohol intoxication paradigm kept BEL intoxication relatively constant in a range of sedation/ataxia (190 to 430 mg/dl, Table 3), according to the 6-point alcohol intoxication behavior scale (Majchrowicz, 1975). The mean dose of ethanol/rat/day (days 1-4) was 7.06 g/kg, similar to other studies (Obernier et al., 2002a, b). […] The autoradiograph was quantified by densitometry (NIH ImageJ® software, National Biosciences, Lincoln, Nebr. USA) and expressed as optical density (OD). […] The quantitative changes in mRNA levels were estimated by means of RT-PCR, carried out in the presence of the SYBR green primer using a 20-L reaction in a Rotor-Gene (Corbett Research®, Mortlake, NSW, Australia). […]"}}, "data": [{"compound": "CCCCCCCC/C=C\\CCCCCCCC(=O)NCCO", "note": "[OEA, oleoylethanolamide]", "values": [{"measurement": "Effect of OEA pre-treatment on BEL reached during days 2-4", "setting": "[1]", "value": "did not change"}, {"measurement": "Ethanol-induced IκBα protein expression", "setting": "IκBα; frontal cortex cytosol extracts", "value": "did not counteract"}, {"measurement": "Ethanol-induced increase in IκBα mRNA levels", "setting": "IκBα; frontal cortex", "value": "did not counteract"}]}]}
